The structures appear in SMILES notation. Like-named read-outs stand apart in the source and are kept apart here.

Data set [1] concerns thyroid cancer cells TPC-1. Kind of data set: MTT antiproliferative assay. The class given is cell-based. The note with it: MTT assay, 48 h, average with SD (n = 3, duplicate), read-out: IC50 (μM), antiproliferative activity against thyroid cancer cells TPC-1. The protocol: Thyroid cancer cells TCP-1 were provided by Wuhan Servicebio Co., Ltd. TCP-1 cells are cultured in RPMI-1640 medium supplemented with 10% foetal bovine serum (FBS), 100 U/mL penicillin, and 0.1 mg/mL streptomycin. All cells are maintained in a humidified incubator at 37 °C with 5% CO2.
The TCP-1 cell line is seeded into a 96-well plate and incubated under conditions of 37 °C and 5% CO2. After the cells adhere, different concentrations of compounds are added and the incubation continues for 48 h under the same conditions. Subsequently, MTT reagent is added to the medium and the incubation is continued for an additional 4 h at 37 °C. After the incubation, the medium is aspirated, and 150 μL of DMSO solution is added to dissolve the purple-blue crystals by shaking. The absorbance of the solution is measured at a wavelength of 490 nm. The IC50 value of the compounds is calculated using SPSS software version 20.0.
A general note: Formazan colour is commonly taken as a measure of viable cells.

For the compound `CNC(=O)c1ccccc1Nc1nc(N/N=C/c2ccc3[nH]ccc3c2)ncc1Cl` [14aa, (E)-2-((2–(2-((1H-indol-5-yl)methylene)hydrazineyl)-5-chloropyrimidin-4-yl)amino)-N-methylbenzamide], the melting point (commonly the temperature, or range, at which the solid turns liquid) was in the range of 218.1 to 219.9 °C. Besides, the IC50 (as a rule, the midpoint of a concentration-inhibition curve) in data set [1] (Homo sapiens, TPC1, 48 h) was 0.331 ± 0.012 µM.

The compound `CNC(=O)c1ccccc1Nc1nc(N/N=C/c2ccc(OC)cc2F)ncc1Cl` [14p, (E)-2-((5-chloro-2–(2-(2-fluoro-4-methoxybenzylidene)hydrazineyl)pyrimidin-4-yl)amino)-N-methylbenzamide] had a melting point of 218.1 to 219.4 °C. In addition, the IC50 in data set [1] (Homo sapiens, TPC1, 48 h) is 0.228 ± 0.065 µM.

`CNC(=O)c1ccccc1Nc1nc(N/N=C/c2ccc(C#N)cc2)ncc1Cl` [14j, (E)-2-((5-chloro-2–(2-(4-cyanobenzylidene)hydrazineyl)pyrimidin-4-yl)amino)-N-methylbenzamide] showed a melting point of 200.7 to 202.1 °C. For the same compound, in data set [1] (Homo sapiens, TPC1, 48 h), the IC50 was 0.126 ± 0.011 µM.

Consider `CNC(=O)c1ccccc1Nc1nc(N/N=C/c2cn(C)c3ccccc23)ncc1Cl` [14 y], for which the melting point fell in the range of 217.2 to 219.1 °C. For the same compound, the IC50 in data set [1] (Homo sapiens, TPC1, 48 h) turned out to be 0.425 ± 0.023 µM.

For the compound `CNC(=O)c1ccccc1Nc1nc(N/N=C/c2ccc(OC)cc2)ncc1Cl` [14c, (E)-2-((5-chloro-2–(2-(4-methoxybenzylidene)hydrazineyl)pyrimidin-4-yl)amino)-N-methylbenzamide], the melting point was 187.7 to 188.9 °C. The IC50 in data set [1] (Homo sapiens, TPC1, 48 h) was 0.257 ± 0.004 µM.

Turning to `CNC(=O)c1ccccc1Nc1nc(N/N=C/c2ccc3cccnc3c2)ncc1Cl` [14w, (E)-2-((5-chloro-2–(2-(quinolin-7-ylmethylene)hydrazineyl)pyrimidin-4-yl)amino)-N-methylbenzamide], the melting point fell in the range of 241.7 to 242.1 °C. Moreover, the IC50 in data set [1] (Homo sapiens, TPC1, 48 h) amounted to 0.413 ± 0.015 µM.

Consider `CNC(=O)c1ccccc1Nc1nc(N/N=C/c2ccc(C(F)(F)F)cc2)ncc1Cl` [14e, (E)-2-((5-chloro-2–(2-(4-(trifluoromethyl)benzylidene)hydrazineyl)pyrimidin-4-yl)amino)-N-methylbenzamide], for which the melting point fell in the range of 206.6 to 208.8 °C. For the same compound, the IC50 in data set [1] (Homo sapiens, TPC1, 48 h) turned out to be 0.193 ± 0.029 µM.

In turn, `CNC(=O)c1ccccc1Nc1nc(N/N=C/c2ccncc2)ncc1Cl` [14 u, (E)-2-((5-chloro-2–(2-(pyridin-4-ylmethylene)hydrazineyl)pyrimidin-4-yl)amino)-N-methylbenzamide] came in with a melting point of 215.1 to 216.8 °C. Moreover, the IC50 in data set [1] (Homo sapiens, TPC1, 48 h) stood at 0.189 ± 0.005 µM.

`CNC(=O)c1ccccc1Nc1nc(N/N=C/c2cccs2)ncc1Cl` [14v, (E)-2-((5-chloro-2–(2-(thiophen-2-ylmethylene)hydrazineyl)pyrimidin-4-yl)amino)-N-methylbenzamide] came in with a melting point of 214.6 to 216.1 °C. The IC50 in data set [1] (Homo sapiens, TPC1, 48 h) worked out at 0.153 ± 0.005 µM.

As for `CNC(=O)c1ccccc1Nc1nc(N/N=C/c2cccc(F)c2)ncc1Cl` [14 l, (E)-2-((5-chloro-2–(2-(3-fluorobenzylidene)hydrazineyl)pyrimidin-4-yl)amino)-N-methylbenzamide], the melting point was 203.3 to 205.1 °C. Further, the IC50 in data set [1] (Homo sapiens, TPC1, 48 h) came to 0.428 ± 0.009 µM.

Compound `CNC(=O)c1ccccc1Nc1nc(N/N=C(\C)c2ccc(F)cc2)ncc1Cl` [14ad, (E)-2-((5-chloro-2–(2-(1–(4-fluorophenyl)ethylidene)hydrazineyl)pyrimidin-4-yl)amino)-N-methylbenzamide] returned a melting point of 222.6 to 223.8 °C. Besides, the IC50 in data set [1] (Homo sapiens, TPC1, 48 h) was 1.46 ± 0.066 µM.

Consider `CNC(=O)c1ccccc1Nc1nc(N/N=C/c2ccccn2)ncc1Cl` [14s, (E)-2-((5-chloro-2–(2-(pyridin-2-ylmethylene)hydrazineyl)pyrimidin-4-yl)amino)-N-methylbenzamide], for which the melting point was in the range of 217.1 to 218.2 °C. The IC50 in data set [1] (Homo sapiens, TPC1, 48 h) amounted to 0.272 ± 0.016 µM.

Compound `CNC(=O)c1ccccc1Nc1nc(N/N=C/c2ccc(OC)cc2OC)ncc1Cl` [14n, (E)-2-((5-chloro-2–(2-(2,4-dimethoxybenzylidene)hydrazineyl)pyrimidin-4-yl)amino)-N-methylbenzamide] showed a melting point of 213.1 to 214.7 °C.

The compound `CNC(=O)c1ccccc1Nc1nc(N/N=C/c2c[nH]c3ccccc23)ncc1Cl` [14x, (E)-2-((2–(2-((1H-indol-3-yl)methylene)hydrazineyl)-5-chloropyrimidin-4-yl)amino)-N-methylbenzamide] returned a melting point of 203.3 to 204.8 °C. Moreover, the IC50 in data set [1] (Homo sapiens, TPC1, 48 h) came to 0.357 ± 0.01 µM.

As to `CNC(=O)c1ccccc1Nc1nc(N/N=C/c2ccc(C)cc2)ncc1Cl` [14b, (E)-2-((5-chloro-2–(2-(4-methylbenzylidene)hydrazineyl)pyrimidin-4-yl)amino)-N-methylbenzamide], the melting point fell in the range of 207.1 to 208.1 °C. The 50% inhibitory concentration (IC50) in data set [1] (Homo sapiens, TPC1, 48 h) amounted to 0.296 ± 0.021 µM.

`CNC(=O)c1ccccc1Nc1nc(N/N=C/c2ccc(OC)c(OC)c2)ncc1Cl` [14o, (E)-2-((5-chloro-2–(2-(3,4-dimethoxybenzylidene)hydrazineyl)pyrimidin-4-yl)amino)-N-methylbenzamide] came in with a melting point of 214.1 to 215.2 °C. Besides, in data set [1] (Homo sapiens, TPC1, 48 h), the IC50 was found to be 0.434 ± 0.012 µM.

`CNC(=O)c1ccccc1Nc1nc(N/N=C/c2ccc(O)cc2)ncc1Cl` [14d, (E)-2-((5-chloro-2–(2-(4-hydroxybenzylidene)hydrazineyl)pyrimidin-4-yl)amino)-N-methylbenzamide] registered a melting point of 187.8 to 189.2 °C. In data set [1] (Homo sapiens, TPC1, 48 h), the IC50 was found to be 0.255 ± 0.025 µM.

Take `CNC(=O)c1ccccc1Nc1nc(N/N=C/c2cccc(OC)c2)ncc1Cl` [14k, (E)-2-((5-chloro-2–(2-(3-methoxybenzylidene)hydrazineyl)pyrimidin-4-yl)amino)-N-methylbenzamide]: the melting point was 199.3 to 200.4 °C. Besides, the IC50 in data set [1] (Homo sapiens, TPC1, 48 h) was found to be 0.517 ± 0.031 µM.

Turning to `CNC(=O)c1ccccc1Nc1nc(N/N=C/c2cccc(C(F)(F)F)c2)ncc1Cl` [14 m, (E)-2-((5-chloro-2–(2-(3-(trifluoromethyl)benzylidene)hydrazineyl)pyrimidin-4-yl)amino)-N-methylbenzamide], the melting point fell in the range of 207.1 to 209.8 °C. Also, the IC50 in data set [1] (Homo sapiens, TPC1, 48 h) was 0.693 ± 0.017 µM.

`CNC(=O)c1ccccc1Nc1nc(N/N=C/c2ccc3cc[nH]c3c2)ncc1Cl` [14ab, (E)-2-((2–(2-((1H-indol-6-yl)methylene)hydrazineyl)-5-chloropyrimidin-4-yl)amino)-N-methylbenzamide] yielded a melting point of 216.1 to 217.7 °C. Besides, in data set [1] (Homo sapiens, TPC1, 48 h), the IC50 came to 0.364 ± 0.015 µM.

Regarding `CNC(=O)c1ccccc1Nc1nc(N/N=C/c2ccc(OC)c(F)c2)ncc1Cl` [14q, (E)-2-((5-chloro-2–(2-(3-fluoro-4-methoxybenzylidene)hydrazineyl)pyrimidin-4-yl)amino)-N-methylbenzamide], the melting point was in the range of 234.1 to 235.7 °C. The half-inhibitory concentration (IC50) in data set [1] (Homo sapiens, TPC1, 48 h) worked out at 0.386 ± 0.047 µM.

With `CNC(=O)c1ccccc1Nc1nc(N/N=C(\C)c2ccc(OC)cc2)ncc1Cl` [14ac, (E)-2-((5-chloro-2–(2-(1–(4-methoxyphenyl)ethylidene)hydrazineyl)pyrimidin-4-yl)amino)-N-methylbenzamide], the melting point is 216.7 to 217.1 °C. Also, the IC50 in data set [1] (Homo sapiens, TPC1, 48 h) was determined as 0.612 ± 0.016 µM.

Take `CNC(=O)c1ccccc1Nc1nc(N/N=C/c2ccc(Br)cc2)ncc1Cl` [14h, (E)-2-((2–(2-(4-bromobenzylidene)hydrazineyl)-5-chloropyrimidin-4-yl)amino)-N-methylbenzamide]: the melting point is 192.1 to 193.2 °C. The IC50 in data set [1] (Homo sapiens, TPC1, 48 h) was 0.59 ± 0.024 µM.

`CNC(=O)c1ccccc1Nc1nc(N/N=C/c2ccc(Cl)cc2)ncc1Cl` [14 g, (E)-2-((5-chloro-2–(2-(4-chlorobenzylidene)hydrazineyl)pyrimidin-4-yl)amino)-N-methylbenzamide] had a melting point of 194.1 to 195.8 °C. The half-inhibitory concentration (IC50) in data set [1] (Homo sapiens, TPC1, 48 h) was determined as 0.409 ± 0.093 µM.

As to `CNC(=O)c1ccccc1Nc1nc(N/N=C/c2ccccc2)ncc1Cl` [14a, (E)-2-((2–(2-benzylidenehydrazineyl)-5-chloropyrimidin-4-yl)amino)-N-methylbenzamide], the melting point was in the range of 199.1 to 202.1 °C. Besides, the IC50 in data set [1] (Homo sapiens, TPC1, 48 h) was 0.306 µM. For the same compound, the IC50 in data set [1] is 0.246 ± 0.038 µM.

Take `CNC(=O)c1ccccc1Nc1nc(N/N=C/c2ccc([N+](=O)[O-])cc2)ncc1Cl` [14i, (E)-2-((5-chloro-2–(2-(4-nitrobenzylidene)hydrazineyl)pyrimidin-4-yl)amino)-N-methylbenzamide]: the melting point fell in the range of 201.7 to 202.8 °C. In data set [1] (Homo sapiens, TPC1, 48 h), the IC50 turned out to be 0.157 ± 0.008 µM.

As to `CNC(=O)c1ccccc1Nc1nc(N/N=C/c2cccnc2)ncc1Cl` [14t, (E)-2-((5-chloro-2–(2-(pyridin-3-ylmethylene)hydrazineyl)pyrimidin-4-yl)amino)-N-methylbenzamide], the melting point is 217.1 to 218.1 °C. Also, the IC50 in data set [1] (Homo sapiens, TPC1, 48 h) was 0.243 ± 0.001 µM.

`CNC(=O)c1ccccc1Nc1nc(N/N=C/c2ccc(F)cc2F)ncc1Cl` [14r, (E)-2-((5-chloro-2–(2-(2,4-difluorobenzylidene)hydrazineyl)pyrimidin-4-yl)amino)-N-methylbenzamide] came in with a melting point of 243.2 to 245.1 °C. In addition, the concentration for half-maximal inhibition (IC50) in data set [1] (Homo sapiens, TPC1, 48 h) came to 0.122 ± 0.032 µM.

Turning to `CNC(=O)c1ccccc1Nc1nc(N/N=C/c2c[nH]c3ccc(OC)cc23)ncc1Cl` [14z, (E)-2-((5-chloro-2–(2-((5-methoxy-1H-indol-3-yl)methylene) hydrazineyl)pyrimidin-4-yl)amino)-N-methylbenzamide], the melting point was 217.1 to 218.2 °C. Further, the IC50 in data set [1] (Homo sapiens, TPC1, 48 h) was found to be 0.624 ± 0.044 µM.

For `CNC(=O)c1ccccc1Nc1nc(Nc2ccc(N3CCOCC3)cc2OC)ncc1Cl` [TAE-226, reference compound], the concentration for half-maximal inhibition (IC50) in data set [1] (Homo sapiens, TPC1, 48 h) came to 1.08 ± 0.023 µM.

These data come from publication PMC11578424, “Discovery of novel 2,4-diarylaminopyrimidine hydrazone derivatives as potent anti-thyroid cancer agents capable of inhibiting FAK” (Journal of Enzyme Inhibition and Medicinal Chemistry, 2024).
